These results are taken from PubChem BioAssay (NCI).

Among the test systems are HCC-2998 colon; OVCAR-3 ovarian; CAKI-1 renal; SK-OV-3 ovarian; IGROV1 ovarian; NCI-H460 lung; SNB-19 CNS; T-47D breast; SW-620 colon; UACC-62 melanoma.
Holding throughout (test): growth of human tumour cells (NCI), 48 h

“And” between values parts separate entries of the source, which are not always exact repeats. Equal entries are not always repeated.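 Dose response: 5 concentrations. Exposure: 48 h. Format: 96-well plates. Endpoint: linear interpolation; highest concentration if not reached. Abbreviation: GI50, concentration required for 50% inhibition of growth. At the TGI there is no net growth.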 Some results are limits rather than exact numbers.

With `c1ccc(OCC[P+](c2ccccc2)(c2ccccc2)c2ccccc2)cc1`, the GI50 with HCC-2998 colon was 0.702 µM; in the test with OVCAR-3 ovarian, 1.11 µM; in the test with CAKI-1 renal it was 25.4 µM; in the test on SK-OV-3 ovarian it was 2.08 µM; in the test on IGROV1 ovarian, 0.905 µM; in the test with NCI-H460 lung, 1.35 µM. For the same compound, the GI50 in the test on SNB-19 CNS was 1.39 µM; in the test on T-47D breast, 0.265 µM; with SW-620 colon, 1.76 µM; in the test on UACC-62 melanoma, 0.678 µM. Further, the TGI in the test with HCC-2998 colon is 12.9 µM; in the test with OVCAR-3 ovarian, 7.69 µM; in the test on CAKI-1 renal, more than 100 µM; with SK-OV-3 ovarian it was 8.16 µM; in the test on IGROV1 ovarian it was 11.8 µM; with NCI-H460 lung, 10.4 µM. Also, the TGI in the test on SNB-19 CNS was found to be 15.1 µM; in the test with T-47D breast it was 2.4 µM; with SW-620 colon, 11.8 µM; in the test on UACC-62 melanoma it was 8.99 µM.
As to `C/C=C1/CN2CCC34c5ccccc5N5C(=O)C(C6CC78c9ccccc9N9C(=O)C=CC(C%10CC7N6C/C%10=C/C)C98)=CC(C1CC23)C54` (stereo not given), the GI50 was 13.4 µM in the test with HCC-2998 colon; 10.7 µM in the test on OVCAR-3 ovarian; 15.3 µM in the test on SK-OV-3 ovarian; 9.87 µM with NCI-H460 lung; 14.8 µM in the test with SNB-19 CNS; 3.32 µM in the test on SW-620 colon. Moreover, the GI50 in the test on UACC-62 melanoma is 10.9 µM. The TGI with HCC-2998 colon is 12.2 µM and 29.9 µM; in the test on OVCAR-3 ovarian it was 16.5 µM and 23.5 µM; in the test on CAKI-1 renal, 21.2 µM and 26.8 µM; in the test with SK-OV-3 ovarian, 19.1 µM and 29.7 µM; in the test with IGROV1 ovarian, 18.3 µM; in the test with NCI-H460 lung, 15.9 µM and 40 µM. The TGI is 15.2 µM and 30 µM with SNB-19 CNS; 33.6 µM in the test on T-47D breast; 5.45 µM and 11.8 µM in the test with SW-620 colon; 14.4 µM and 23.6 µM in the test on UACC-62 melanoma.
As to `COc1ccc(COc2ccc(Cc3cnc(N)nc3N)cc2OC)cc1`, the GI50 with HCC-2998 colon was more than 25 µM; in the test with OVCAR-3 ovarian, more than 19.4 µM; with CAKI-1 renal, more than 24.1 µM; in the test with SK-OV-3 ovarian it was more than 25 µM; with IGROV1 ovarian, more than 25 µM; in the test on NCI-H460 lung it was more than 22.1 µM. The GI50 in the test on SNB-19 CNS was more than 25 µM; with T-47D breast it was 7.08 µM; in the test on SW-620 colon, more than 25 µM; in the test with UACC-62 melanoma, 12 µM. In addition, the TGI with HCC-2998 colon, in the test on OVCAR-3 ovarian, in the test with CAKI-1 renal, with SK-OV-3 ovarian, in the test with IGROV1 ovarian and in the test on NCI-H460 lung was more than 25 µM each time. Also, the TGI in the test with SNB-19 CNS, in the test on T-47D breast, in the test with SW-620 colon and with UACC-62 melanoma was more than 25 µM each time.
As to `Cc1cccc(Nc2ncc(-c3ccccc3)o2)c1`, the GI50 in the test with HCC-2998 colon, in the test on OVCAR-3 ovarian, in the test on CAKI-1 renal, in the test with SK-OV-3 ovarian, with IGROV1 ovarian and in the test with NCI-H460 lung was more than 25 µM in each case. Further, the GI50 in the test on SNB-19 CNS, with T-47D breast, with SW-620 colon and in the test with UACC-62 melanoma was more than 25 µM in each case. The TGI in the test on HCC-2998 colon, with OVCAR-3 ovarian, in the test with CAKI-1 renal, in the test with SK-OV-3 ovarian, in the test with IGROV1 ovarian and in the test with NCI-H460 lung was more than 25 µM in each case. Further, the TGI in the test with SNB-19 CNS, in the test with T-47D breast, with SW-620 colon and in the test with UACC-62 melanoma was more than 25 µM throughout.
Regarding `CCN(Cc1c(F)cccc1C(F)(F)F)c1ccc(CO)c(Cl)c1`, the GI50 with HCC-2998 colon is 16.7 µM; in the test on OVCAR-3 ovarian it was 0.261 µM; in the test on CAKI-1 renal it was 10.2 µM; in the test on SK-OV-3 ovarian, 13.7 µM; with IGROV1 ovarian, less than 0.0338 µM; with NCI-H460 lung, 0.0894 µM. The GI50 was 14.9 µM in the test on SNB-19 CNS, less than 0.0249 µM in the test with T-47D breast and 0.79 µM in the test on SW-620 colon. Besides, the TGI with HCC-2998 colon was 33 µM; in the test with OVCAR-3 ovarian, 4.9 µM; with CAKI-1 renal it was 24.2 µM; in the test on SK-OV-3 ovarian it was 26.8 µM; in the test on NCI-H460 lung, 17.2 µM; in the test on SNB-19 CNS, 29.1 µM. In addition, the TGI is 0.285 µM with T-47D breast, 20.4 µM with SW-620 colon and 12.6 µM with UACC-62 melanoma.
As to `c1ccc2c(c1)CCCc1nnc3nc4ccccc4n3c1-2`, the GI50 in the test with HCC-2998 colon was 6.45 µM; with OVCAR-3 ovarian, 4.37 µM; in the test with CAKI-1 renal, 5.32 µM; in the test with SK-OV-3 ovarian, 7.78 µM; in the test on IGROV1 ovarian it was 2.88 µM; in the test on NCI-H460 lung, 3.65 µM. Further, the GI50 was 7.5 µM in the test on SNB-19 CNS, 5.49 µM in the test with T-47D breast, 5.06 µM with SW-620 colon and 6.54 µM in the test with UACC-62 melanoma. Besides, the TGI is 24.1 µM in the test on HCC-2998 colon; 37.8 µM in the test on OVCAR-3 ovarian; more than 100 µM in the test on CAKI-1 renal; more than 100 µM in the test on SK-OV-3 ovarian; more than 100 µM in the test on IGROV1 ovarian; 16.6 µM with NCI-H460 lung. Also, the TGI with SNB-19 CNS was more than 100 µM; in the test with T-47D breast, more than 100 µM; in the test on SW-620 colon, 24.2 µM; with UACC-62 melanoma it was more than 100 µM.
Regarding `C#Cc1cccc(NC(=O)C2CCCCN2C(=O)CCl)c1` (stereo not given), the GI50 is 28.6 µM with HCC-2998 colon; 10.1 µM in the test on OVCAR-3 ovarian; 13.4 µM in the test on CAKI-1 renal; more than 82.5 µM in the test on SK-OV-3 ovarian; 9.72 µM in the test with IGROV1 ovarian; 23.9 µM with NCI-H460 lung. For the same compound, the GI50 is more than 82.5 µM in the test on SNB-19 CNS, 16 µM in the test with T-47D breast, 12.1 µM in the test with SW-620 colon and 18.9 µM in the test on UACC-62 melanoma. The TGI is more than 82.5 µM in the test on HCC-2998 colon; 22.2 µM in the test on OVCAR-3 ovarian; 26.3 µM with CAKI-1 renal; more than 82.5 µM in the test on SK-OV-3 ovarian; 27.1 µM in the test on IGROV1 ovarian; more than 82.5 µM in the test with NCI-H460 lung. Besides, the TGI was more than 82.5 µM with SNB-19 CNS, more than 82.5 µM in the test with T-47D breast, 31.5 µM in the test on SW-620 colon and more than 82.5 µM with UACC-62 melanoma.
As for `Nc1ncnc2c1ncn2Cc1ccc(CCl)cc1`, the GI50 with HCC-2998 colon was 14.2 µM; with OVCAR-3 ovarian, 14.3 µM; with CAKI-1 renal it was 14.3 µM; in the test on SK-OV-3 ovarian, 19.7 µM; with IGROV1 ovarian, 25.8 µM; with NCI-H460 lung, 17 µM. Moreover, the GI50 with SNB-19 CNS was 16 µM; with T-47D breast it was 8 µM; in the test on SW-620 colon, 12.8 µM; in the test on UACC-62 melanoma, 19.6 µM. Further, the TGI is 29 µM with HCC-2998 colon; 31.7 µM in the test with OVCAR-3 ovarian; 28.9 µM in the test on CAKI-1 renal; 40.8 µM in the test with SK-OV-3 ovarian; 66.5 µM in the test on IGROV1 ovarian; 41.1 µM in the test on NCI-H460 lung. The TGI with SNB-19 CNS came to 37.8 µM; with T-47D breast, 27.4 µM; in the test with SW-620 colon, 30.2 µM; with UACC-62 melanoma it was 34.6 µM.
